Assay results published in the NIST ThermoML archive (doi:10.1016/j.jct.2006.05.004).

Experiments:
[1] = xn = mol fraction of the nth substance listed; details: 298.15 K, 101 kPa, Liquid
[2] = excess molar enthalpy (molar enthalpy of mixing); xn = mol fraction of the nth substance listed; details: 298.15 K, 101 kPa, Liquid

BrCCCCCBr [1,5-dibromopentane] + CCCC(=O)OC
Details | excess molar enthalpy [kcal/mol] | mass density [kg/m3]
[1], x2 = 0.0754 | – | 1642.8
[1], x2 = 0.1463 | – | 1593.12
[1], x2 = 0.2087 | – | 1548.48
[1], x2 = 0.2699 | – | 1503.86
[1], x2 = 0.3456 | – | 1447.37
[1], x2 = 0.454 | – | 1363.99
[1], x2 = 0.573 | – | 1268.9
[1], x2 = 0.6279 | – | 1223.66
[1], x2 = 0.6902 | – | 1171.2
[1], x2 = 0.7398 | – | 1128.65
[1], x2 = 0.7971 | – | 1078.54
[1], x2 = 0.8961 | – | 989.47
[1], x2 = 0.9526 | – | 937.22
[2], x2 = 0.0788 | 0.015 | –
[2], x2 = 0.1742 | 0.0254 | –
[2], x2 = 0.2762 | 0.0325 | –
[2], x2 = 0.374 | 0.0341 | –
[2], x2 = 0.461 | 0.0309 | –
[2], x2 = 0.5359 | 0.0249 | –
[2], x2 = 0.5693 | 0.0214 | –
[2], x2 = 0.6313 | 0.0152 | –
[2], x2 = 0.7089 | 0.0093 | –
[2], x2 = 0.7917 | 0.00514 | –
[2], x2 = 0.8725 | 0.00258 | –
[2], x2 = 0.946 | 0.00131 | –

BrCCCCCCBr [1,6-dibromohexane] + CCCCC(=O)OC
Details | excess molar enthalpy [kcal/mol] | mass density [kg/m3]
[1], x2 = 0.0703 | – | 1557.19
[1], x2 = 0.1394 | – | 1513.24
[1], x2 = 0.2633 | – | 1432.4
[1], x2 = 0.3222 | – | 1392.97
[1], x2 = 0.3842 | – | 1350.7
[1], x2 = 0.4472 | – | 1306.98
[1], x2 = 0.5076 | – | 1264.24
[1], x2 = 0.5698 | – | 1219.49
[1], x2 = 0.6817 | – | 1136.77
[1], x2 = 0.7372 | – | 1094.69
[1], x2 = 0.8445 | – | 1011.22
[1], x2 = 0.8993 | – | 967.47
[1], x2 = 0.945 | – | 930.4
[2], x2 = 0.0734 | 0.0108 | –
[2], x2 = 0.1653 | 0.0181 | –
[2], x2 = 0.264 | 0.0216 | –
[2], x2 = 0.3507 | 0.0227 | –
[2], x2 = 0.418 | 0.0213 | –
[2], x2 = 0.4743 | 0.0187 | –
[2], x2 = 0.5227 | 0.0154 | –
[2], x2 = 0.5866 | 0.0104 | –
[2], x2 = 0.6386 | 0.00703 | –
[2], x2 = 0.716 | 0.00251 | –
[2], x2 = 0.7966 | 4.78e-05 | –
[2], x2 = 0.879 | -0.000789 | –
[2], x2 = 0.9483 | -0.00012 | –

BrCCCBr [1,3-dibromopropane] + CCCCC(=O)OC
Details | excess molar enthalpy [kcal/mol] | mass density [kg/m3]
[1], x2 = 0.0534 | – | 1896.4
[1], x2 = 0.0937 | – | 1841.97
[1], x2 = 0.1477 | – | 1771.31
[1], x2 = 0.188 | – | 1720.07
[1], x2 = 0.2439 | – | 1650.83
[1], x2 = 0.2975 | – | 1586.35
[1], x2 = 0.3439 | – | 1532.03
[1], x2 = 0.4116 | – | 1455.16
[1], x2 = 0.4656 | – | 1395.81
[1], x2 = 0.5216 | – | 1335.88
[1], x2 = 0.5922 | – | 1262.69
[1], x2 = 0.6481 | – | 1206.41
[1], x2 = 0.7047 | – | 1151.1
[1], x2 = 0.7835 | – | 1076.35
[1], x2 = 0.8493 | – | 1016.07
[1], x2 = 0.9201 | – | 953.2
[2], x2 = 0.0492 | 0.00571 | –
[2], x2 = 0.1163 | 0.00925 | –
[2], x2 = 0.1938 | 0.00973 | –
[2], x2 = 0.2736 | 0.00767 | –
[2], x2 = 0.338 | 0.00421 | –
[2], x2 = 0.41 | -0.00237 | –
[2], x2 = 0.4582 | -0.00743 | –
[2], x2 = 0.4998 | -0.0112 | –
[2], x2 = 0.5481 | -0.0146 | –
[2], x2 = 0.6786 | -0.0158 | –
[2], x2 = 0.7994 | -0.0132 | –
[2], x2 = 0.9065 | -0.00848 | –

BrCCBr [1,2-dibromoethane] + CCCCC(=O)OC
Details | excess molar enthalpy [kcal/mol] | mass density [kg/m3]
[1], x2 = 0.0413 | – | 2086.33
[1], x2 = 0.0834 | – | 2009.4
[1], x2 = 0.1257 | – | 1934.54
[1], x2 = 0.1717 | – | 1857.45
[1], x2 = 0.2221 | – | 1776.23
[1], x2 = 0.2644 | – | 1711.22
[1], x2 = 0.3124 | – | 1640.62
[1], x2 = 0.3717 | – | 1557.38
[1], x2 = 0.4812 | – | 1414.72
[1], x2 = 0.5471 | – | 1335.17
[1], x2 = 0.6142 | – | 1258.34
[1], x2 = 0.6822 | – | 1184.61
[1], x2 = 0.755 | – | 1109.85
[1], x2 = 0.833 | – | 1033.97
[1], x2 = 0.9091 | – | 963.97
[2], x2 = 0.0457 | 0.00222 | –
[2], x2 = 0.1054 | 0.00361 | –
[2], x2 = 0.1756 | 0.00289 | –
[2], x2 = 0.2495 | -0.000765 | –
[2], x2 = 0.3112 | -0.0059 | –
[2], x2 = 0.3523 | -0.0102 | –
[2], x2 = 0.3893 | -0.0141 | –
[2], x2 = 0.4631 | -0.0184 | –
[2], x2 = 0.5105 | -0.0206 | –
[2], x2 = 0.5845 | -0.0217 | –
[2], x2 = 0.6874 | -0.0198 | –
[2], x2 = 0.7978 | -0.0149 | –
[2], x2 = 0.9098 | -0.00805 | –
